From US11717508B2, “Compounds, compositions, and methods for inhibiting bacterial growth” (priority 2016, dated 2023)
Where two headings read alike, the source gives them in different places.

Experiments:
[1] = system: DosR regulon genes (dosR, hspX and tgs1); assay: NO and vitamin C sensitivity assays (RT-PCR); type: cell-based, Mycobacterium tuberculosis; conditions: for induction of dosR / induction of hspX / induction of tgs1: 2 h
[2] = system: CDC1551(hspX′:GFP) reporter; assay: microbe, parasite or virus in culture; type: cell-based, Mycobacterium tuberculosis; conditions: Mycobacterium tuberculosis, 6 days of treatment
Mtb = assay: microbe, parasite or virus in culture; type: cell-based; conditions: Mycobacterium tuberculosis; 6 days, optical density; unit given as M; read-out: growth inhibition EC50
Mtb Erdman [3] = conditions: 1 μM and 5 μM INH, ten days post INH treatment
Mtb Erdman [4] = assay: microbe, parasite or virus in culture; conditions: Mycobacterium tuberculosis, 240 h, read-out: viability, INH alone
[5] = read-out: EC50 of inhibition of CDC1551(hspX′:GFP) reporter (dosR-dependent GFP) fluorescence

Q: Which “induction of dosR” value ([1]; 2 mM vitamin C) does the source give for `O=C1O[C@H]([C@@H](O)CO)C(O)=C1O` [vitamin C, reference compound] here?
A: Its value is 4 fold.

Q: What about the “induction of hspX” value ([1]; 2 mM vitamin C) of the same compound?
A: Its value is 14 fold.

Q: What about the “induction of tgs1” value ([1]; 2 mM vitamin C) of the same compound?
A: Its value is 52 fold.

Q: Which results are given for `CN(C)CCCN1C(=O)c2cccc3c(Br)ccc(c23)C1=O` [HC104A, 6-bromo-2-[3-(dimethylamino)propyl]benzo[de]isoquinoline-1,3-dione]?
A: EC50 ([2]; unit given as M, read-out: EC50 of inhibition of dosR-dependent GFP fluorescence): 2.8 µM; EC50 (Mtb): > 80 µM

Q: `CCCS(=O)(=O)N1CCN(Cc2ccc3c(c2)c2ccccc2n3CC)CC1` [HC105A, 9-ethyl-3-[(4-propylsulfonylpiperazin-1-yl)methyl]carbazole; oxalic acid] was tested. Which EC50 [2, 5] did it give?
A: Its EC50 is 12.7 µM.

Q: What about the EC50 (Mtb) of the same compound?
A: Its EC50 is over 80 µM.

Q: Which EC50 [2, 5] does the source give for `O=C(Nc1ccno1)Nc1ccc(Cl)cc1Cl` [HC106A, 1-(2,4-dichlorophenyl)-3-(1,2-oxazol-5-yl)urea] here?
A: Its EC50 is 6.9 µM.

Q: And the EC50 (Mtb)?
A: Its EC50 is over 80 µM.

Q: Which “induction of dosR” value ([1]; NO (50 μM DETA-NONOate)) does the source give for `[N]=O` [NO, reference compound] here?
A: Its value is 491 fold.

Q: And the “induction of hspX” value ([1]; NO (50 μM DETA-NONOate))?
A: Its value is 373 fold.

Q: And the “induction of tgs1” value ([1]; NO (50 μM DETA-NONOate))?
A: Its value is 47 fold.

Q: Which results are given for `NNC(=O)c1ccncc1` [INH, isoniazid, reference compound]?
A: viability, INH alone (Mtb Erdman [3]): ~100%; viability at 25 µM (Mtb Erdman [4]): ~75%

Q: For `C[C@H]1[C@@H](O)O[C@@H]2O[C@@]3(C)CC[C@H]4[C@H](C)CC[C@@H]1[C@@]24OO3` [DHA, dihydroartemisinin, reference compound], which “reduction of magnitude of induction of transcripts in response to DETA-NONOate vs DMSO treatment” value ([1]; 80 μM pretreatment 24 h) is on record?
A: The value was about 2 fold.
